Results taken from US20080038321A1, “PROPHYLACTIC/THERAPEUTIC COMPOSITIONS FOR LIVER DISEASES” (Ajinomoto Co., Inc., priority 2004, published 2008).

Columns and labels:
HNF-4α = HNF-4α mRNA in Fao cells with L-Asp, L-Ala or both (quantitative PCR); type: cell-based, rat; conditions: 3 h, L-Asp 0.05 mM, L-Ala 0.03 mM or both
Description: (§1) Whether the suppressive effect of L-Asp on TRB3 expression in rat hepatocyte-derived Fao cells is increased by adding L-Ala as another amino acid was studied. Whether the expression of HNF-4α is increased was also studied. Fao cells were inoculated on a 24-well plate to an amount of 2×10^5 cells/well, and the cells were cultivated in a 10% fetal bovine serum-containing RPMI 1640 medium (supplied from Nacalai Tesque, Inc.; Code No. 30264-85) at 37° C. in an atmosphere of 5% CO2 overnight. On the following day, the medium was replaced with one of a 10% fetal bovine serum-containing RPMI medium from which all amino acids had been removed (minus amino acid medium; Table 1) and media corresponding to the minus amino acid medium, except with L-Asp (concentration: 0.05 mM), L-Ala (concentration: 0.03 mM), or both added, and the cells were further cultivated at 37° C. in 2.5% CO2 atmosphere for three hours. RNAs were extracted from the cultured cells, and the TRB3 mRNA levels and the HNF-4α mRNA levels were determined through quantitative polymerase chain reaction (PCR) (Table 10).

TRB3 [1] = experiment: TRB3 mRNA in Fao cells with L-Asp, L-Ala or both (quantitative PCR); type: cell-based, rat; conditions: 3 h, L-Asp 0.05 mM, L-Ala 0.03 mM or both
Description: as §1

TRB3 [2] = experiment: Suppressive effects of amino acids on TRB3 expression in cultured hepatocytes (Fao cells, quantitative PCR); type: cell-based, rat; conditions: 3 h, minus amino acid medium plus one L-amino acid 1 mM (or standard medium), mRNA, minus amino acid medium = 1.00, n = 4, mean ± SD
Description: Suppressive effects of twenty-two amino acids on TRB3 expression in rat hepatic cancer-derived Fao cells were examined.
The standard medium is a medium corresponding to the minus amino acid medium, except for further containing amino acids listed in Table 2.
RNAs were extracted from the cultured cells, the expression levels of TRB3 gene were determined through quantitative polymerase chain reaction (PCR), and the suppressive effects of amino acids on TRB3 expression were determined and compared with data of TRB3 expression induced upon amino acid starvation. The gene expression was corrected with reference to β-actin expression level. The correction was carried out in the same manner in the after-mentioned genes.
The data were corrected and expressed while taking the average of TRB3 mRNA levels after three-hour cultivation in the minus amino acid medium as 1.00.

[3] = test system: GK rats fed with high-fat diets; experiment: GK rats fed with high-fat diets: body weight, fasting glucose, insulin, triglyceride, liver triglyceride; conditions: HFD with about 6% L-Asp or 0.01% pioglitazone
TRB3 [4] = experiment: Suppressive effects of amino acids on TRB3 expression in cultured hepatocytes (Fao cells, quantitative PCR); type: cell-based, rat; conditions: other experiments; 1 mM
[5] = test system: glucose-6-phosphatase (G6Pase); experiment: Effect of L-Asp on G6Pase expression suppressive action of insulin in Fao cells (quantitative PCR); type: cell-based, rat; conditions: 6 h, no insulin = 1.00
Description: To verify whether an amino acid showing a TRB3 expression suppressive action actually increases the insulin action on hepatocytes, how L-Asp acts on glucose-6-phosphatase (G6Pase) expression suppressive action of insulin in rat hepatic cancer-derived Fao cells was studied.
Fao cells were inoculated on a 24-well plate and cultured overnight. Thereafter, 0, 0.3, and 1.0 mM L-Asp and 0, 10^−10, 10^−8, and 10^−6 M insulin were added respectively to a basal medium corresponding to RPMI 1640 medium containing no glucose but 0.1% BSA, except with L-Asp being removed therefrom, and the cells were further cultivated for six hours. RNAs were extracted from the cultured cells, and the expression levels of G6Pase were determined through quantitative PCR.
The G6Pase expression level in −Asp RPMI medium added with no insulin is defined as 1.00.
The values in the parentheses are values while defining the G6Pase expression levels in −Asp RPMI medium at respective insulin concentrations as 1.00, respectively.

[6] = before administration (baseline)

C[C@H](N)C(=O)O [Ala, L-alanine]
expression level of HNF-4α mRNA (HNF-4α): not increased | HNF4α mRNA level (HNF-4α; minus amino acid medium = 1.00): 0.80 | TRB3 mRNA level (TRB3 [1]; minus amino acid medium = 1.00): 0.43 | expression level of TRB3 mRNA (TRB3 [1]; of minus amino acid medium): 43%

N[C@@H](CSSC[C@H](N)C(=O)O)C(=O)O [L-Cyt, cystine]
TRB3 expression level (TRB3 [2]): 0.487 ± 0.13 | TRB3 expression level (TRB3 [2]; listed as cystine): significantly suppressed TRB3 expression

NC(=O)CC[C@H](N)C(=O)O [L-Gln, glutamine]
TRB3 expression level (TRB3 [2]): 0.750 ± 0.15 | TRB3 expression level (TRB3 [2]; listed as glutamine): significantly suppressed TRB3 expression

NCC(=O)O [L-Gly, glycine]
TRB3 expression level (TRB3 [2]): 0.665 ± 0.12 | TRB3 expression level (TRB3 [2]; listed as glycine): significantly suppressed TRB3 expression

N[C@@H](Cc1c[nH]cn1)C(=O)O [L-His, histidine]
TRB3 expression level (TRB3 [2]): 0.643 ± 0.19 | TRB3 expression level (TRB3 [2]; listed as histidine): significantly suppressed TRB3 expression

CCc1ccc(CCOc2ccc(CC3SC(=O)NC3=O)cc2)nc1 (stereo not shown) [Pio, pioglitazone, reference compound]
Fasting blood glucose level [3, 6]: 121 ± 37 mg/dL | Fasting insulin level [3, 6]: 0.4 ± 0.3 ng/mL | Fasting triglyceride level [3, 6]: 92 ± 19 mg/dL | Body weight ([3]; before administration (baseline), n = 6): 222 ± 10 g | Fasting blood glucose level ([3]; week 3): 127 ± 5 mg/dL | Fasting insulin level ([3]; week 3): 1.9 ± 0.2 ng/mL | Fasting triglyceride level ([3]; week 3): 97 ± 16 mg/dL | Fasting blood glucose level ([3]; week 6): 109 ± 8 mg/dL | Fasting insulin level ([3]; week 6): 1.3 ± 0.5 ng/mL | Fasting triglyceride level ([3]; week 6): 75 ± 12 mg/dL | Triglyceride content in liver ([3]; week 6): 36 ± 8 mg/g

N=C(N)NCCC[C@H](N)C(=O)O [arginine]
TRB3 expression level (TRB3 [2]): do not show significantly suppressed TRB3 expression

NC(=O)C[C@H](N)C(=O)O [asparagine]
TRB3 expression level (TRB3 [2]): do not show significantly suppressed TRB3 expression

C[N+](C)(C)CC(=O)O [betaine, reference compound]
suppressive effect on TRB3 expression (TRB3 [4]): does not show a suppressive effect

N[C@@H](CS)C(=O)O [cysteine]
TRB3 expression level (TRB3 [2]): do not show significantly suppressed TRB3 expression

N[C@@H](CCC(=O)O)C(=O)O [glutamic acid]
TRB3 expression level (TRB3 [2]): do not show significantly suppressed TRB3 expression

O=C(O)[C@@H]1C[C@@H](O)CN1 [hydroxyproline]
TRB3 expression level (TRB3 [2]): do not show significantly suppressed TRB3 expression

CC[C@H](C)[C@H](N)C(=O)O [isoleucine]
TRB3 expression level (TRB3 [2]): do not show significantly suppressed TRB3 expression

CC(C)C[C@H](N)C(=O)O [leucine]
TRB3 expression level (TRB3 [2]): do not show significantly suppressed TRB3 expression

NCCCC[C@H](N)C(=O)O [lysine]
TRB3 expression level (TRB3 [2]): do not show significantly suppressed TRB3 expression

CSCC[C@H](N)C(=O)O [methionine]
TRB3 expression level (TRB3 [2]): do not show significantly suppressed TRB3 expression

N[C@@H](Cc1ccccc1)C(=O)O [phenylalanine]
TRB3 expression level (TRB3 [2]): do not show significantly suppressed TRB3 expression

O=C(O)[C@@H]1CCCN1 [proline]
TRB3 expression level (TRB3 [2]): do not show significantly suppressed TRB3 expression

N[C@@H](CO)C(=O)O [serine]
TRB3 expression level (TRB3 [2]): do not show significantly suppressed TRB3 expression

C[C@@H](O)[C@H](N)C(=O)O [threonine]
TRB3 expression level (TRB3 [2]): do not show significantly suppressed TRB3 expression

N[C@@H](Cc1c[nH]c2ccccc12)C(=O)O [tryptophan]
TRB3 expression level (TRB3 [2]): do not show significantly suppressed TRB3 expression

N[C@@H](Cc1ccc(O)cc1)C(=O)O [tyrosine]
TRB3 expression level (TRB3 [2]): do not show significantly suppressed TRB3 expression

CC(C)[C@H](N)C(=O)O [valine]
TRB3 expression level (TRB3 [2]): do not show significantly suppressed TRB3 expression

insulin: insulin added to the Fao cell culture medium at 10^-10 to 10^-6 M [reference compound]
G6Pase expression level ([5]; insulin 10^-6 M alone in -Asp RPMI): 0.023 (1.00) | G6Pase expression level ([5]; insulin 10^-8 M alone in -Asp RPMI): 0.032 (1.00) | G6Pase expression level ([5]; insulin 10^-10 M alone in -Asp RPMI): 0.148 (1.00)
